Test results as given in patent US20240158446A1, “CYCLIC COMPOUND HAVING SELECTIVE INHIBITORY ACTION ON KRAS OVER HRAS AND NRAS” (CHUGAI SEIYAKU KABUSHIKI KAISHA, priority 2021, published 2024).

Assays:
[1] = target: GDP-bound HRAS wild-type protein (Homo sapiens, UniProt P01112); assay: Binding to HRAS by surface plasmon resonance (SPR), Single Cycle Kinetics; details: SPR, GDP-bound HRAS wild-type protein vs GDP-bound KRAS wild-type protein
[2] = target: GDP-bound NRAS wild-type protein (Homo sapiens, UniProt P01111); assay: Binding to NRAS by surface plasmon resonance (SPR), Single Cycle Kinetics; details: SPR, GDP-bound NRAS wild-type protein vs GDP-bound KRAS wild-type protein
Sequence of GDP-bound NRAS wild-type protein (P01111 whole entry): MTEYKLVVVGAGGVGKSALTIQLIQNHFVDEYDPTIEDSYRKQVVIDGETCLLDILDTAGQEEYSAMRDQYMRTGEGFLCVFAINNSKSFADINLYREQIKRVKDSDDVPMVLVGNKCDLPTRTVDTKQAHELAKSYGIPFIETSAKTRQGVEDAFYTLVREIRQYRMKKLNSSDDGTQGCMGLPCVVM

[3] = target: GDP-bound KRAS wild-type protein (Homo sapiens, UniProt P01116); assay: Binding to KRAS by surface plasmon resonance (SPR), Single Cycle Kinetics; details: SPR Single Cycle Kinetics, GDP-bound KRAS wild-type protein, 1:1 binding model; read-out: KRAS KD
Sequence of GDP-bound KRAS wild-type protein (P01116 whole entry): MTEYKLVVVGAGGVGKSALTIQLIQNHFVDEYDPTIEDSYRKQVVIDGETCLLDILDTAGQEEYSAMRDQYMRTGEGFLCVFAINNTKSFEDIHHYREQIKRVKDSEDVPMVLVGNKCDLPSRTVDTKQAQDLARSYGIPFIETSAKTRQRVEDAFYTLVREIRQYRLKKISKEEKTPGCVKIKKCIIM

Sequence of GDP-bound HRAS wild-type protein (P01112 whole entry): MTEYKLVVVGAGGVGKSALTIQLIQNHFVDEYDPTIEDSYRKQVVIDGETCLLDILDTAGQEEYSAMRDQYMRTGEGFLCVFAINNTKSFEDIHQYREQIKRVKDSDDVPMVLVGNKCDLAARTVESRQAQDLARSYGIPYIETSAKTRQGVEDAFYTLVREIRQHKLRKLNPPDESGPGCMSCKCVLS

SMILES	Kd [3] [µM]	HRAS/KRAS (ratio of KD value with respect to HRAS to KD value with respect to KRAS) [1]	NRAS/KRAS (ratio of KD value with respect to NRAS to KD value with respect to KRAS) [2]
CC[C@H](C)[C@@H]1NC(=O)[C@H](CC(C)C)N(C)C(=O)C[C@@H](C(=O)N(C)C)N(C)C(=O)[C@H](C2CCCC2)N(C)C(=O)C2(CCCC2)NC(=O)[C@@H]2CCCN2C(=O)[C@H](CCc2cc(F)c(C(F)(F)F)c(F)c2)NC(=O)CN(C)C(=O)[C@H](Cc2ccc(C(F)(F)F)cc2)N2CCCCC[C@@H](C2=O)N(C)C(=O)CN(CC)C1=O [PP0514]	0.011	B (a compound having 3 or more and less than 10 is denoted as B)	B (a compound having 3 or more and less than 10 is denoted as B)
CC[C@H](C)[C@@H]1NC(=O)[C@H](CC(F)(F)F)N(C)C(=O)C[C@@H](C(=O)N2CCOCC2)N(C)C(=O)[C@H](C2CCCC2)N(C)C(=O)C2(CCCC2)NC(=O)[C@@H]2CCCN2C(=O)[C@H](CCc2cc(F)c(C(F)(F)F)c(F)c2)NC(=O)CN(C)C(=O)[C@H](Cc2ccc(C(F)(F)F)cc2)N2CCCCC[C@@H](C2=O)N(C)C(=O)CN(C)C1=O [PP0520]	0.00099	B (a compound having 3 or more and less than 10 is denoted as B)	B (a compound having 3 or more and less than 10 is denoted as B)
CC[C@H](C)[C@@H]1NC(=O)[C@@H]2CCCCCN2C(=O)C[C@@H](C(=O)N2CCOCC2)N(C)C(=O)[C@H](C2CCCC2)N(C)C(=O)C2(CCCC2)NC(=O)[C@@H]2CCCN2C(=O)[C@H](CCc2cc(F)c(C(F)(F)F)c(F)c2)NC(=O)CN(C)C(=O)[C@H](Cc2ccc(C(F)(F)F)cc2)N2CCCCC[C@@H](C2=O)N(C)C(=O)CN(C)C1=O [PP0521]	0.072	B (a compound having 3 or more and less than 10 is denoted as B)	B (a compound having 3 or more and less than 10 is denoted as B)

Continued, in another order:

Kd [3] [µM]	SMILES	HRAS/KRAS (ratio of KD value with respect to HRAS to KD value with respect to KRAS) [1]	NRAS/KRAS (ratio of KD value with respect to NRAS to KD value with respect to KRAS) [2]
0.029	CC[C@H](C)[C@@H]1NC(=O)[C@H](CC(C)C)N(C)C(=O)C[C@@H](C(=O)N2CCOCC2)N(C)C(=O)[C@H](C2CCCC2)N(C)C(=O)C2(CCCC2)NC(=O)[C@H](C)N(CC)C(=O)[C@H](CCc2cc(F)c(C(F)(F)F)c(F)c2)NC(=O)CN(C)C(=O)[C@H](Cc2ccc(C(F)(F)F)cc2)N2CCCCC[C@@H](C2=O)N(C)C(=O)CN(C)C1=O [PP0515]	B (a compound having 3 or more and less than 10 is denoted as B)	B (a compound having 3 or more and less than 10 is denoted as B)
0.01	CC[C@H](C)[C@@H]1NC(=O)[C@H](CC(C)C)NC(=O)C[C@@H](C(=O)N2CCOCC2)N(C)C(=O)[C@H](C2CCCC2)N(C)C(=O)C2(CCCC2)NC(=O)[C@@H]2CCCN2C(=O)[C@H](CCc2cc(F)c(C(F)(F)F)c(F)c2)NC(=O)CN(C)C(=O)[C@H](Cc2ccc(C(F)(F)F)cc2)N2CCCCC[C@@H](C2=O)N(C)C(=O)CN(C)C1=O [PP0516]	B (a compound having 3 or more and less than 10 is denoted as B)	B (a compound having 3 or more and less than 10 is denoted as B)
0.0028	CC(C)C[C@H]1C(=O)N[C@@H](C2CCC2)C(=O)N(C)CC(=O)N(C)[C@H]2CCCCCN(C2=O)[C@@H](Cc2ccc(C(F)(F)F)cc2)C(=O)N(C)CC(=O)N[C@@H](CCc2cc(F)c(C(F)(F)F)c(F)c2)C(=O)N2CCC[C@H]2C(=O)NC2(CCCC2)C(=O)N(C)[C@@H](C2CCCC2)C(=O)N(C)[C@H](C(=O)N2CCOCC2)CC(=O)N1C [PP0522]	B (a compound having 3 or more and less than 10 is denoted as B)	B (a compound having 3 or more and less than 10 is denoted as B)
